From EP0335662B1, “Peptides” (BRITISH TECHNOLOGY GROUP LIMITED, priority 1988, dated 1989)
Where “and” joins values, the source holds several entries; their conditions need not be identical. Equal entries are not always repeated. Where two headings read alike, the source gives them in different places. Non-standard residues stand in square brackets, D forms with d. Residues, ends and D or L forms follow the SMILES beside them.

What was measured:
[1] = system: hyperalgesia evoked by IL-1β; experiment: Modified Randall-Sellito rat paw pressure test: hyperalgesia evoked by IL-1β; type: in vivo, rats; settings: 100 »g ipl, 30 minutes before 0.05U IL-1β ipl or ip
Method: (§1) Hyperalgesia was evaluated by the application of a constant pressure of 20 mmHg to the hind paws of rats (Wistar strain, male, weight 135 - 170g) which was discontinued when animals presented a characteristic freezing reaction (reaction time). The intensity of hyperalgesia was quantified as the variation of the reaction time (Δ reaction time, sec) obtained by subtracting the value measured 1,2,3 or 4h after administration of the hyperalgesic agent from the pre-injection control reaction time (zero time). The experimenter was unaware of the group treatments.
(§2) There were 5 animals per treatment group. […]

[2] = system: human blood mononuclear cells (MNC); experiment: PGE₂ release by blood mononuclear cells, radioimmunoassay; type: cell-based; settings: in words
Method: The effect of K(D)PT and indomethacin on PGE₂ release by human blood mononuclear cells (MNC) was investigated. The MNC were isolated from buffy coat residues by density gradient centrifugation (Ficoll-hypaque, Sigma) and resuspended in RPMI 1640 culture medium (Gibco) + 2% inactivated foetal calf serum (Imperial Laboratories). […] Values are means of quadruplicates ± s.e.m.'s. PGE₂ concentrations were measured by radioimmunoassay (NEN Research Products).

gastric lesions = experiment: Gastric lesions after treatment; type: in vivo, mice; settings: 32 mg/kg
[3] = system: hyperalgesia evoked by PGE₂; experiment: Rat paw pressure test: hyperalgesia evoked by PGE₂; design: species or system rats; settings: in vivo
Method: as §1, §2

[4] = system: hyperalgesia evoked by DbcAMP; experiment: Rat paw pressure test: hyperalgesia evoked by DbcAMP; design: species or system rats; settings: in vivo
Method: as §1
The effect of the tripeptides KPV and K(D)PV on hyperalgesia evoked in rats by DbcAMP was studied. Treatments were given ip, 1h before DbcAMP was injected into the paw (ipl). There were 5 animals per treatment group. Delta reaction times were measured 3h after DbcAMP. […] The control was DbcAMP (100»g/paw). […]

[5] = system: hot plate (55°C) reaction time; experiment: Standard hot plate (55°C) test; settings: in vivo
Method: A standard hot plate (55°C) test was carried out. […]

[6] = system: hyperalgesia evoked by IL-1β; settings: cited from earlier work
mice = settings: administered to mice; Goerne et al 1982; cited from earlier work
hot-plate test = settings: injected into the brain; Herman et al 1985; cited from earlier work

COc1ccc2c(c1)c(CC(=O)O)c(C)n2C(=O)c1ccc(Cl)cc1 [Indomethacin, indomethacin]
effect of pretreatment on hyperalgesic response, contralateral paws (CL) [1]: no effect | effect of pretreatment on hyperalgesic response, treated paws (I) [1]: markedly attenuated | effect on production of PGE₂ by MNC [2]: abolished PGE₂ production

C[C@@H](O)[C@H](NC(=O)[C@H]1CCCN1C(=O)[C@@H](N)CCCCN)C(=O)O [K(D)PT, Lys-D-Pro-Thr] (H-Lys-[dP]-Thr-OH)
gastric lesions (gastric lesions): No lesions were observed

CN1CC[C@]23c4c5ccc(O)c4O[C@H]2[C@@H](O)C=C[C@H]3[C@H]1C5 [Morphine, morphine]
change of delta reaction time vs control (= 100%) [3]: -63.7% | delta reaction time [3]: 6.1 ± 0.8 s | antagonism of hyperalgesia evoked by DbcAMP [4]: effective antagonist | change of delta reaction time vs control (= 100%) [4]: -64.0% | delta reaction time [4]: 6.2 ± 0.4 s | reaction time difference, hot plate (55°C) [5]: 3.52 s and 5.55 s | antagonism of on-going hyperalgesia ([6]; rat, in vivo): able to antagonise on-going hyperalgesia

Cc1c(N(C)CS(=O)(=O)O)c(=O)n(-c2ccccc2)n1C [dipyrone]
antagonism of on-going hyperalgesia ([6]; general statement on known analgesics, no data): able to antagonise on-going hyperalgesia

Arg-Pro
hyperalgesia on administration (mice): evoke hyperalgesia

Lys-Pro
antinociceptive action in a hot-plate test (hot-plate test): elicited antinociceptive action | hyperalgesia on administration (mice): evoke hyperalgesia
